Data on three substances can be found in article PMC6979384, “Characterization of the plant homeodomain (PHD) reader family for their histone tail interactions” (Epigenetics & Chromatin, 2020).

Entries after “also recorded” stand apart in the source; their conditions may differ.

In one experiment the test system is AIRE (PP). Briefly: PHD finger domain microarray. In kind it is binding, human. An excerpt: (§1) To define the histone binding preferences of the PHD finger proteome, we expressed and purified 123 annotated human PHD-containing domains as GST-tagged recombinant fusions from E. coli. The recombinant proteins consisted of either PHD fingers in isolation, or as tandem domains if a given PHD finger was located adjacent to another reader domain (e.g., one or more PHD fingers, Tudor, chromo and/or bromodomains) (Additional file 1: Table S1). These GST fusions were printed in duplicate on nitrocellulose-coated microarray slides and probed with biotinylated peptides that represented the N-termini of H3, H4, H2A or H2B (Fig. 1a and Additional file 2: Figure S1). As the majority of PHD readers thus far characterized are H3K4me0/3 readers, we included additional peptides (H3K4 as either mono-, di-, or trimethylated) to further determine any H3K4 methyl preference (Additional file 2: Figure S2 and Fig. 1b). As a control, we also probed these microarrays with an α-Tubulin peptide (a.a. 30–50) that would not be predicted to interact with PHD fingers (Additional file 2: Figure S1). […] We also cannot exclude the possibility that some PHD fingers might not be functionally active on the microarrays (perhaps due to misfolding or the lack of an important adjacent region).
(§2) The protein domain microarray was designed to include 123 GST-tagged PHD-domain containing recombinant proteins. Protein domain microarray development and probing was as previously. Briefly, recombinant proteins were synthesized and cloned into pGEX-4T-1 vector by Biomatik Corporation. These GST-PHD readers were subsequently expressed, purified, and spotted in duplicate onto nitrocellulose-coated glass slides (Oncyte Avid slides, Grace Bio-Labs) using a pin arrayer (Aushon 2470, Aushon). For probing, microarray slides were blocked with 3% milk, 3% bovine serum albumin, 0.1% Tween 20 in PBS. Biotinylated peptides were pre-labeled with streptavidin-Cy3 fluorophore (GE Healthcare) and incubated with the blocked array slides. Slides were then washed with PBST and allowed to air dry. Fluorescent interactions were visualized using a GenePix 4200A Microarray Scanner (Molecular Devices).

In the next experiment the test system is KDM5A (PHD1). The experiment is described as follows: PHD finger domain microarray. In kind it is binding, human.
Text: as §1, §2

The test system of another experiment is KDM5B (PHD1). Briefly: PHD finger domain microarray. Type of experiment: binding, human.
Text: as §1, §2

Another experiment deals with PHF21A. Briefly: PHD finger domain microarray. In kind it is binding, human.
Text: as §1, §2

The subject of experiment [1] is TRIM66 (PB). The experiment is described as follows: PHD finger domain microarray. In kind it is binding, human.
Text: as §1, §2

A further experiment has as its system KDM5A (PHD3). The experiment is described as follows: PHD finger domain microarray. In kind it is binding, human.
Text: as §1, §2

The test system of the next experiment is CHD4 (PPCC). Briefly: dCypher AlphaScreen Phase A (reader titration). The conditions noted are these: 100 nM peptide, 23 °C, n = 2. Type of experiment: binding, human. The procedure:
(§3) Fig. 3 dCypher histone peptide-binding assays define the PTM recognition preference of PHD proteins with high sensitivity. a–h Binding curves to determine optimal reader protein concentration for full peptide library screening on the dCypher® AlphaScreen® platform (see “Methods”). X-axes are log(protein concentration (M)) at constant peptide concentration (100 nM); Y-axes are AlphaScreen counts, representing relative strength of binding (n = 2; error bars are S.D.). i Heat map represents relative binding to H3 N-terminal peptides (left) by PHD-containing GST-tagged proteins (top) using the dCypher AlphaScreen platform. Protein concentrations can be found in Additional file 5: Table S4. Binding strength is indicated by color gradient from green to yellow (stronger to weaker). The asterisk (*) by MLL5 signifies its general preference for H3K4 methylation. Alpha counts (n = 2) were normalized individually for each protein to the highest signal for each respective assay. For full dCypher peptide screen data, see Additional file 4: Table S3
(§4) We next employed a highly sensitive proximity-based AlphaScreen histone peptide assay (dCypher®) to provide a third and orthogonal approach to analyzing the histone binding preferences for a subset of the 31 PHD proteins with respect to various histone tail PTMs. In this assay, biotinylated peptides are bound to streptavidin “donor” beads and the GST-tagged reader domains bound to Glutathione “acceptor” beads. […] Initial binding assays were conducted for each fusion protein using three peptides [H3 (1–20) with K4me0, H3K4me3 or H3K9me3] to determine the optimal reader domain concentration for full peptide library studies (Fig. 3a–h; Additional file 4: Table S3 and Additional file 5: Table S4). […]
(§5) The dCypher peptide screen assay was performed as previously described. […] Plates were incubated at 23 °C in subdued lighting for 60 min and AlphaLISA signal measured on a PerkinElmer 2104 EnVision (680 nm laser excitation, 570 nm emission filter ± 50 nm bandwidth). […]

The next experiment has as its system PHRF1 (RP). Briefly: dCypher AlphaScreen Phase A (reader titration). The conditions noted are these: 100 nM peptide, 23 °C, n = 2. Type of experiment: binding, human. As to the method:
as §3, §4, §5
(In general: In Alpha technology, singlet oxygen from a donor bead excites a nearby acceptor bead.)

In experiment [2] the test system is TRIM66 (PB). Briefly: dCypher AlphaScreen Phase A (reader titration). The conditions noted are these: 100 nM peptide, 23 °C, n = 2. In kind it is binding, human. The procedure:
as §3, §4, §5

The subject of a further experiment is CHD4. The conditions noted are these: cited from earlier work. An excerpt:
Plant homeodomain fingers comprise one of the largest families of reader domains, with over 100 human proteins containing this module. PHD fingers are Zn-coordinating domains that generally recognize unmodified or methylated lysines. To date, the majority of those characterized bind to histone H3 tails either methylated at K4 [7], or unmodified in that position (i.e., KDM5B PHD3 versus KDM5B PHD1 [10, 11] or PHF21A, also known as BHC80 [12]).

For the substance “H3 (1-20): unmodified H3 N-terminal peptide (1–20)”, the binding preference result in the experiment on AIRE (PP) was “preference for the unmethylated H3K4 state”; in the experiment with KDM5A (PHD1), “preference for the unmethylated H3K4 state”; in the experiment on KDM5B (PHD1) it was “preference for the unmethylated H3K4 state”; with PHF21A, “preference for the unmethylated H3K4 state”; in the experiment on TRIM66 (PB) [1] (listed as unmethylated H3K4), “preference for the unmethylated H3K4 state”; in the experiment on TRIM66 (PB) [1] (listed as unmodified H3 tail) it was “readers of the unmodified H3 tail”.
Turning to H3K4me3: H3 1-20 [Peptide H3K4me3], the binding preference result in the experiment with KDM5A (PHD3) is “consistent with their current classification as H3K4me3 binders”.
Consider H3K9me3: H3 1-20 [Peptide H3K9me3], for which the “relative binding over a range of protein concentration” value in the experiment with CHD4 (PPCC) and in the experiment with TRIM66 (PB) [2] was “stronger interaction with H3K9me3 compared with the unmodified peptide” in each case. Besides, in the experiment with PHRF1 (RP), the “binding preference at low versus high protein concentrations” value was “distinct binding preference for the H3K9me3 peptide over the H3K4me0 peptide”. In addition, the reported binding entry with CHD4 is “annotated to recognize H3K9me3; also recorded: reported as readers of H3K9 trimethylation”.
